In brackets after ≈: the same amount, converted by molar mass.
System: Ofloxacin-resistant Enterobacteriaceae
Assay: organism not typed
Format: cell-based

| SMILES | MIC90 [µg/mL] |
| --- | --- |
| CCn1cc(C(=O)O)c(=O)c2cc(F)c(N3CCNCC3)cc21 [Norfloxacin] | 128 (≈ 401 µM) |
| NC1CCCCN(c2c(F)cc3c(=O)c(C(=O)O)cn(C4CC4)c3c2Cl)C1 (stereo not drawn) [Compound Having Formula III] | 16 |
| CC1COc2c(N3CCN(C)CC3)c(F)cc3c(=O)c(C(=O)O)cn1c23 (stereo not drawn) [Ofloxacin] | 64 (≈ 177 µM) |
